According to patent US12357596B2, “Compounds for prevention and treatment of obesity and related disorders” (ABREXA PHARMACEUTICALS, INC., priority 2019, dated 2025):
Marks after values point to notes of the source that are not given here.

How the values were obtained:
[1] = Toxicokinetics in satellite animals of the 28-day oral gavage study (plasma, Day 1); type: in vivo, Sprague-Dawley rats; conditions: Sprague-Dawley, rat, Day 1, 30 mg/kg/day (NOAEL), for information only (ISR failed)
Experimental: J147 or vehicle was administered once daily to Sprague-Dawley rats via oral gavage for 28 consecutive days at a daily dose of 0, 30, 100 or 300 mg/kg. J174 was prepared in a vehicle formulation comprising 5% ethanol, 5% DMSO and 90% corn oil (v/v/v). Certified rodent diet and water was available ad libitum. Groups 1-4 contained 10 animals/sex/group. Groups 1 (control) and 4 (high dose) also included an additional 5 animals/sex/group for use as recovery animals. The recovery animals were maintained on study for a 14-day postdosing recovery period. Animals in Groups 1-4 were monitored for morbidity and mortality, clinical signs, detailed clinical observations, body weight, food consumption, ophthalmologic parameters, neurobehavioral assessment consisting of a Functional Observational Battery (FOB) and a motor activity test, hematology, coagulation, serum chemistry, and urinalysis parameters. Postmortem assessment included necropsy, measurement of selected organ weights, and microscopic evaluation of a standard set of tissues. Plasma samples for bioanalysis were collected on Days 1 and 28 from satellite toxicokinetic animals in Groups 5 through 8. Animals in these groups were euthanized following the last blood sampling and carcasses were discarded without examination. The study protocol is shown below in Table 1.
Additionally, analysis of Day 28 samples also occurred outside the known long-term stability (LTS) range of the validated bioanalytical method. Thus, the bioanalytical and toxicokinetic results for J147 are considered to be for information only. The bioanalytical and toxicokinetic analysis results should also be considered in light of the fact that Day 28 samples were analyzed outside of their LTS.
Given that there was clear evidence of toxicity at the mid and high dose groups, the Study Director believes that this study met the objective of examining the toxicity profile of J147. […] Under the conditions of this study, the no-observed-adverse-effect-level (NOAEL) for J147 was considered to be 30 mg/kg/day. […] Cmax and AUC0-last values should be considered in light of the caveats mentioned in the preceding paragraph. The lowest-observed-adverse-effect-level (LOAEL) is 100 mg/kg/day in both sexes based on test article-related decreases in body weight/body weight gain and food consumption, decreased activity, decreases in measures of red blood cell mass, decreased prothrombin time, decreased serum glucose and triglycerides, decreased thymus weights, and single cell necrosis of pancreatic acinar cells in males.

[2] = 28-Day Oral (Gavage) Toxicity Study in Beagle Dogs with a 14-Day Recovery Period at 0, 1, 10 and 30 mg/kg/day (body weight); type: in vivo
Experimental: (§1) J147 was administered once daily to beagle dogs via oral gavage for up to 28 days at a daily dose of 0, 1, 10 and 30 mg/kg. J174 was prepared in a vehicle formulation comprising 5% ethanol, 5% DMSO and 90% corn oil (v/v/v). Block Lab Diet (Certified Canine Diet #5007, PMI Nutrition International, Inc.) was offered via limited feedings, except during designated periods. The animals were offered food 2 hours postdose on each dosing day for 2 to 5 hours. Food was offered 2 to 5 hours/day during the acclimation period and during the recovery period. Tap water was available ad libitum via an automatic watering system. The study protocol is shown below in Table 10.

[3] = Oral gavage study up to 28 days at 0, 30, 100 and 300 mg/kg/day (body weight, food consumption); type: in vivo, beagle dogs
Experimental: as §1, with “J147 or vehicle” for “J147”, “30, 100” for “1, 10”, “300” for “30”, “post-dose” for “postdose”, “9.” for “10.”

[4] = female dogs, 30 mg/kg/day, Day 28
[5] = male dogs, 30 mg/kg/day, Day 28
[6] = dogs, all J147-treated groups (30, 100, 300 mg/kg/day), both sexes
[7] = female dogs, 100 mg/kg/day, Day 28
[8] = female dogs, 300 mg/kg/day, Day 21 versus the Day 28 control value
[9] = male dogs, 100 mg/kg/day, Day 28
[10] = male dogs, 300 mg/kg/day, Day 22 versus the Day 28 control value

SMILES: COc1cccc(/C=N/N(C(=O)C(F)(F)F)c2ccc(C)cc2C)c1 [J147]
- AUC(0-t) ([1]; female rats): 0.233 µg·h/mL
- Cmax ([1]; female rats): 0.0508 µg/mL
- AUC(0-t) ([1]; male rats): 0.835 µg·h/mL
- Cmax ([1]; male rats): 0.146 µg/mL
- Conclusion on body weight ([2]; dogs, 28-day oral gavage): induces weight loss and inhibits weight gain
- Body weight and food consumption finding ([2]; dogs, Groups 3 and 4, 10 mg/kg/day and 30 mg/kg/day): Body weight loss with lower food consumption
- Weight lost compared to pre-test levels (up to) ([2]; dogs, males and females, 10 mg/kg/day): up to −9%
- Body Weight, Mean ([2]; female dogs, 1 mg/kg/day, Day 3): 6.463 kg
- Body Weight, Mean ([2]; female dogs, 1 mg/kg/day, Day 7): 6.513 kg
- Body Weight, Mean ([2]; female dogs, 1 mg/kg/day, Day 10): 6.675 kg
- Body Weight, Mean ([2]; female dogs, 1 mg/kg/day, Day 14): 6.688 kg
- Body Weight, Mean ([2]; female dogs, 1 mg/kg/day, Day 17): 6.763 kg
- Body Weight, Mean ([2]; female dogs, 1 mg/kg/day, Day 21): 6.788 kg
- Body Weight, Mean ([2]; female dogs, 1 mg/kg/day, Day 24): 6.813 kg
- Body Weight, Mean ([2]; female dogs, 1 mg/kg/day, Day 28): 6.813 kg
- Body Weight, Mean ([2]; female dogs, 1 mg/kg/day, Day −1 (pre-dose)): 6.413 kg
- Animals that lost weight ([2]; female dogs, 10 mg/kg/day): 4 of 4
- Body Weight, Mean ([2]; female dogs, 10 mg/kg/day, Day 3): 6.363 kg
- Body Weight, Mean ([2]; female dogs, 10 mg/kg/day, Day 7): 6.250 kg
- Body Weight, Mean ([2]; female dogs, 10 mg/kg/day, Day 10): 6.275 kg
- Body Weight, Mean ([2]; female dogs, 10 mg/kg/day, Day 14): 6.150 kg
- Body Weight, Mean ([2]; female dogs, 10 mg/kg/day, Day 17): 6.163 kg
- Body Weight, Mean ([2]; female dogs, 10 mg/kg/day, Day 21): 6.063 kg
- Body Weight, Mean ([2]; female dogs, 10 mg/kg/day, Day 24): 6.038 kg
- Body Weight, Mean ([2]; female dogs, 10 mg/kg/day, Day 28): 5.988 kg
- Body Weight, Mean ([2]; female dogs, 10 mg/kg/day, Day −1 (pre-dose)): 6.325 kg
- Animals that lost weight ([2]; female dogs, 30 mg/kg/day): 6 of 6
- Weight lost, of pretest levels (up to) ([2]; female dogs, 30 mg/kg/day): ≤ −17%
- Body Weight, Mean ([2]; female dogs, 30 mg/kg/day, Day 3): 6.308 kg
- Body Weight, Mean ([2]; female dogs, 30 mg/kg/day, Day 7): 6.242 kg
- Body Weight, Mean ([2]; female dogs, 30 mg/kg/day, Day 10): 6.192 kg
- Body Weight, Mean ([2]; female dogs, 30 mg/kg/day, Day 14): 6.033 kg
- Body Weight, Mean ([2]; female dogs, 30 mg/kg/day, Day 17): 5.858^a kg
- Body Weight, Mean ([2]; female dogs, 30 mg/kg/day, Day 21): 5.700^b kg
- Body Weight, Mean ([2]; female dogs, 30 mg/kg/day, Day 24): 5.575^b kg
- Body Weight, Mean [2, 4]: 5.525^b kg
- Body Weight, Mean ([2]; female dogs, 30 mg/kg/day, Day −1 (pre-dose)): 6.258 kg
- Body Weight, Mean ([2]; male dogs, 1 mg/kg/day, Day 3): 7.850 kg
- Body Weight, Mean ([2]; male dogs, 1 mg/kg/day, Day 7): 7.838 kg
- Body Weight, Mean ([2]; male dogs, 1 mg/kg/day, Day 10): 8.000 kg
- Body Weight, Mean ([2]; male dogs, 1 mg/kg/day, Day 14): 8.000 kg
- Body Weight, Mean ([2]; male dogs, 1 mg/kg/day, Day 17): 8.075 kg
- Body Weight, Mean ([2]; male dogs, 1 mg/kg/day, Day 21): 8.200 kg
- Body Weight, Mean ([2]; male dogs, 1 mg/kg/day, Day 24): 8.325 kg
- Body Weight, Mean ([2]; male dogs, 1 mg/kg/day, Day 28): 8.250 kg
- Body Weight, Mean ([2]; male dogs, 1 mg/kg/day, Day −1 (pre-dose)): 7.813 kg
- Animals that lost weight ([2]; male dogs, 10 mg/kg/day): 3 of 4
- Body Weight, Mean ([2]; male dogs, 10 mg/kg/day, Day 3): 7.588 kg
- Body Weight, Mean ([2]; male dogs, 10 mg/kg/day, Day 7): 7.675 kg
- Body Weight, Mean ([2]; male dogs, 10 mg/kg/day, Day 10): 7.763 kg
- Body Weight, Mean ([2]; male dogs, 10 mg/kg/day, Day 14): 7.625 kg
- Body Weight, Mean ([2]; male dogs, 10 mg/kg/day, Day 17): 7.563 kg
- Body Weight, Mean ([2]; male dogs, 10 mg/kg/day, Day 21): 7.663 kg
- Body Weight, Mean ([2]; male dogs, 10 mg/kg/day, Day 24): 7.638 kg
- Body Weight, Mean ([2]; male dogs, 10 mg/kg/day, Day 28): 7.500 kg
- Body Weight, Mean ([2]; male dogs, 10 mg/kg/day, Day −1 (pre-dose)): 7.563 kg
- Animals that lost weight ([2]; male dogs, 30 mg/kg/day): 5 of 6
- Weight lost, of pretest levels (up to) ([2]; male dogs, 30 mg/kg/day): up to −12%
- Body Weight, Mean ([2]; male dogs, 30 mg/kg/day, Day 3): 7.900 kg
- Body Weight, Mean ([2]; male dogs, 30 mg/kg/day, Day 7): 7.933 kg
- Body Weight, Mean ([2]; male dogs, 30 mg/kg/day, Day 10): 8.008 kg
- Body Weight, Mean ([2]; male dogs, 30 mg/kg/day, Day 14): 7.967 kg
- Body Weight, Mean ([2]; male dogs, 30 mg/kg/day, Day 17): 7.883 kg
- Body Weight, Mean ([2]; male dogs, 30 mg/kg/day, Day 21): 7.800 kg
- Body Weight, Mean ([2]; male dogs, 30 mg/kg/day, Day 24): 7.825 kg
- Body Weight, Mean [2, 5]: 7.600 kg
- Body Weight, Mean ([2]; male dogs, 30 mg/kg/day, Day −1 (pre-dose)): 7.908 kg
- Body weight and body weight gain compared to the vehicle-treated control group [3, 6]: decreased
- Food consumption compared to the vehicle-treated control group [3, 6]: decreased
- Decrease of group mean body weight [3, 4]: 19%
- Decrease of group mean food consumption [3, 4]: 45%
- Decrease of group mean body weight [3, 7]: 21%
- Decrease of group mean food consumption [3, 7]: 48%
- Decrease of group mean body weight [3, 8]: 23%
- Decrease of group mean food consumption [3, 8]: 38%
- Decrease of group mean body weight [3, 5]: 23%
- Decrease of group mean food consumption [3, 5]: 31%
- Decrease of group mean body weight [3, 9]: 26%
- Decrease of group mean food consumption [3, 9]: 39%
- Decrease of group mean body weight [3, 10]: 18%
- Decrease of group mean food consumption [3, 10]: 48%
